# Data: patent publication US12622965B2, “Therapeutical tools and methods using temperature-sensitive receptors for treating blindness” (FRIEDRICH MIESCHER INSTITUTE FOR BIOMEDICAL RESEARCH, priority 2020, dated 2026)
# Test system: HEK cells expressing TRPV1.459-6x-His, TRPV1.465-6x-His or untagged TRPV1
# Experiment: whole cell voltage clamp in HEK cells expressing TRPV1 variants, activated by capsaicin
# Assay type: cell-based
# Details: TRPV1 agonist capsaicin 2.5 μM bath applied; voltage clamp −60 mV; mean±s.e.m
# Source text: First, they developed a system based on rat TRPV1 channels and gold nanorods with absorption maxima at 915 nm. 915 nm was selected to ensure low water absorption. […] To measure if tagged channels are functional, they performed whole cell voltage clamp in HEK cells expressing TRPV1.459-6x-His, TRPV1.465-6x-His or untagged TRPV1 while activating the channels by TRPV1 agonist capsaicin. The size of evoked currents were similar between TRPV1.465-6x-His and TRPV1 (Mann-Whitney U test, P=0.8551; TRPV1.465-6x-His, 1633±164 pA, […] 15 cells; TRPV1, 1766±276 pA, n=14 cells; mean±s.e.m), but less in TRPV1.459-6x-His (Mann-Whitney U test, P=0.0207; TRPV1.459-6x-His, 976±118 pA, n=19 cells; mean±s.e.m). Therefore, they used TRPV1.465-6x-His (rTRPV1) in subsequent experiments.
# For HEK293T cell experiments, cells were maintained at 37° C. on poly-D-lysine/laminin coated coverslips (GG-12-Laminin, Neuvitro) in DMEM supplemented with 10% fetal bovine serum. Cells were transfected with plasmids containing TRP variants using branched PEI. Cells were perfused in oxygenated Ringer's medium containing 110 mM NaCl, 2.5 mM KCl, 1 mM CaCl2, 1.6 mM MgCl2, 10 mM D-glucose and 22 mM NaHCO3 at ˜36° C. for the duration of the experiment. […] Data was analyzed offline using MATLAB (MathWorks).
substance,measurement,value
TRPV1: untagged rat TRPV1 channel [reference compound],size of evoked currents,1766±276 pA
